Common to all, as to experiment: NCI tumour cell line growth inhibition, 48 h
Assay [1] relates to NCI-H522.
Assay [2] has as its system PC-3.
Assay [3] concerns EKVX.
Assay [4] deals with HT-29.
The test system of assay [5] is UACC-62.
Assay [6] concerns K562.
The subject of assay [7] is NCI-H460.
In assay [8] the test system is LOX IMVI.
Assay [9] relates to MDA-MB-435.
Assay [10] relates to IGROV-1.
Assay [11] has as its system UACC-257.
For assay [12], the system named is T47D.
Assay [13] has as its system SK-MEL-5.
For assay [14], the system named is UO-31.
The test system of assay [15] is HCT-15.
The subject of assay [16] is SF-268.
The subject of assay [17] is 786-0.
The subject of assay [18] is ACHN.
Assay [19] deals with Hs-578T.

SMILES strings stand for the structures.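 Growth conditions: 96-well plates. Treatment: test compound, 48 hours, 5 concentrations. Analysis: linear interpolation between bracketing concentrations; unreached endpoints set to highest concentration. GI50: concentration for 50% inhibition of growth.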 The source made the active and inactive calls. Cut-off read from the data, not from the text of the source: active = GI50 up to about 1.1 µM and inactive = higher. Bounds are passed on as bounds.

In the case of `O=C(NC/C=C/Br)NC1CCNc2ccccc21` (stereo not drawn), the GI50 in assay [1] was 74 µM (inactive); in assay [2] it was 37.3 µM (inactive); in assay [3] it was 47.6 µM (inactive); in [4] it was 15.7 µM (inactive); in [5], 31.3 µM (inactive); in assay [6], 30.1 µM (inactive). Further, the GI50 in [7] is 34.9 µM (inactive); in [8], 25.6 µM (inactive); in [9], 31.6 µM (inactive); in assay [10] it was 76.6 µM (inactive); in [11] it was 21.8 µM (inactive); in [12], 36.5 µM (inactive). Besides, the GI50 in assay [13] was 19.5 µM (inactive); in assay [14] it was 27.8 µM (inactive); in assay [15], 37.3 µM; in assay [16], 77.4 µM (inactive); in assay [17], 26.6 µM (inactive); in assay [18], 58.3 µM (inactive).

On to `N#CCC1C2CC3C(C2=O)C13` (stereo not drawn), for which the GI50 in assay [1], in assay [2], in [3], in assay [4], in assay [5] and in assay [6] was > 100 µM (inactive) each time. For the same molecule, the GI50 in assay [7], in [8], in [9], in assay [10], in assay [11] and in [12] was > 100 µM (inactive) in each case. For the same molecule, the GI50 in [13] is > 100 µM (inactive); in assay [14], > 100 µM (inactive); in [15], greater than 100 µM; in assay [16] it was > 100 µM (inactive); in [17], > 100 µM (inactive); in assay [19] it was > 100 µM (inactive). For the same molecule, in assay [18], the GI50 is > 100 µM (inactive).

Turning to `CC12Nc3ccccc3C1=C(c1ccccc1)CC1C(=O)OC(=O)C12` (stereo not drawn), the GI50 in [1], in assay [3], in assay [4], in [5], in [6] and in assay [7] was > 100 µM (inactive) each time. Moreover, the GI50 was > 100 µM (inactive) in assay [8]; > 100 µM (inactive) in [10]; > 100 µM (inactive) in [11]; > 100 µM (inactive) in assay [13]; > 100 µM (inactive) in assay [14]; greater than 100 µM in assay [15]. The GI50 in [16], in assay [17] and in assay [18] was > 100 µM (inactive) in each case.

In the case of `CCCOC(=O)C1C(c2ccc(OC)cc2)NC(c2ccc(OC)cc2)C(C(=O)OCCC)S1(=O)=O` (stereo not drawn), the GI50 in [1], in [3], in assay [4], in assay [5], in assay [6] and in assay [7] was > 10 µM (inactive) throughout. In addition, the GI50 is > 10 µM (inactive) in assay [8]; > 10 µM (inactive) in [10]; > 10 µM (inactive) in assay [11]; > 10 µM (inactive) in assay [13]; > 10 µM (inactive) in [14]; greater than 10 µM in [15]. Further, the GI50 in assay [16], in assay [17] and in assay [18] was > 10 µM (inactive) in each case.

As for `CCCCN[C@H]1C2C3CC4C5CC(C42)C1(C)C53` (stereo partly drawn), the GI50 in assay [1], in [3], in assay [4], in assay [5], in [6] and in [7] was > 100 µM (inactive) in each case. Besides, the GI50 is > 100 µM (inactive) in assay [8]; > 100 µM (inactive) in [10]; > 100 µM (inactive) in assay [11]; > 100 µM (inactive) in assay [13]; > 100 µM (inactive) in assay [14]; greater than 100 µM in assay [15]. The GI50 in [16], in assay [17] and in [18] was > 100 µM (inactive) each time.

On to `COc1cc2c(oc(=O)c3c4occc4cc(OC)c23)c2cccc(OCc3ccccc3)c12`, for which the GI50 was > 100 µM (inactive) in assay [1]; > 100 µM (inactive) in [3]; > 100 µM (inactive) in [4]; 86.1 µM (inactive) in [5]; > 100 µM (inactive) in assay [6]; 44.9 µM (inactive) in [7]. The GI50 is > 100 µM (inactive) in assay [8]; > 100 µM (inactive) in assay [10]; > 100 µM (inactive) in [11]; > 100 µM (inactive) in [13]; > 100 µM (inactive) in assay [14]; greater than 100 µM in assay [15]. The GI50 was > 100 µM (inactive) in assay [16], 41.4 µM (inactive) in assay [17] and > 100 µM (inactive) in assay [18].

On to `COC(=O)CCC(NC(=S)N/N=C(\C)c1ccc[nH]1)C(=O)OC` (stereo not drawn), for which the GI50 in assay [1], in assay [3], in assay [4], in [5], in assay [6] and in assay [7] was > 100 µM (inactive) in each case. In addition, the GI50 is > 100 µM (inactive) in assay [8]; > 100 µM (inactive) in assay [10]; > 100 µM (inactive) in assay [11]; > 100 µM (inactive) in assay [13]; > 100 µM (inactive) in assay [14]; greater than 100 µM in assay [15]. The GI50 in [16], in assay [17] and in assay [18] was > 100 µM (inactive) throughout.

Consider `Cc1ccc(C)c(NC(=O)C(=O)C2C(=O)N(c3ccccc3)N=C2N)c1` (stereo not drawn), for which the GI50 was > 100 µM (inactive) in assay [1]; > 100 µM (inactive) in assay [3]; > 100 µM (inactive) in assay [4]; > 100 µM (inactive) in assay [5]; 90.2 µM (inactive) in assay [6]; > 100 µM (inactive) in [7]. For the same molecule, the GI50 in assay [8] is > 100 µM (inactive); in assay [10], > 100 µM (inactive); in [11], > 100 µM (inactive); in [13] it was > 100 µM (inactive); in [14] it was > 100 µM (inactive); in assay [15], greater than 100 µM. The GI50 in [16], in assay [17] and in assay [18] was > 100 µM (inactive) in each case.

With `COc1ccc(CCN2CCC(C#N)(c3ccc(OC)c(OC)c3)CC2)cc1OC`, the GI50 in assay [1] is 84.9 µM (inactive); in [3], > 100 µM (inactive); in assay [4] it was > 100 µM (inactive); in assay [5] it was > 100 µM (inactive); in assay [6], > 100 µM (inactive); in assay [7], > 100 µM (inactive). For the same molecule, the GI50 in assay [8] is > 100 µM (inactive); in [10], > 100 µM (inactive); in [11], > 100 µM (inactive); in assay [13], > 100 µM (inactive); in assay [14], > 100 µM (inactive); in assay [15] it was greater than 100 µM. For the same molecule, the GI50 in assay [16], in assay [17] and in assay [18] was > 100 µM (inactive) each time.

Regarding `CC(C)=C=CP(=O)(O)c1ccccc1`, the GI50 in assay [1], in [2], in [3], in assay [4], in assay [5] and in assay [6] was > 100 µM (inactive) in each case. Moreover, the GI50 in assay [7], in assay [8], in [9], in [10], in assay [11] and in assay [12] was > 100 µM (inactive) throughout. In addition, the GI50 is > 100 µM (inactive) in assay [13]; greater than 100 µM in assay [15]; > 100 µM (inactive) in [16]; > 100 µM (inactive) in assay [17]; > 100 µM (inactive) in assay [19]; > 100 µM (inactive) in [18].

For `O=C(/C(=C\c1ccccc1)CN1CCOCC1)c1ccc(Br)cc1`, the GI50 in assay [1] was 1.28 µM (inactive); in [3], 3.06 µM (inactive); in assay [4], 2.05 µM (inactive); in assay [5] it was 1.55 µM (inactive); in assay [6] it was 1.15 µM (inactive); in assay [7] it was 3.01 µM (inactive). Further, the GI50 in assay [8] was 1.65 µM (inactive); in assay [10], 4.97 µM (inactive); in assay [11], 2.59 µM (inactive); in [13], 1.91 µM (inactive); in assay [14] it was 1.8 µM (inactive); in assay [15], 1.93 µM. Also, the GI50 in assay [16] was 3.63 µM (inactive); in assay [17], 1.57 µM (inactive); in assay [18], 1.75 µM (inactive).

For the molecule `CC(NC(=O)Cc1ccc(OP(=O)(OCc2ccc([N+](=O)[O-])o2)N(C)CCCCCl)cc1)c1ccc(OCC2CCCCC2)c(C(N)=O)c1` (stereo not drawn), the GI50 was 2.25 µM (inactive) in [1]; 2.88 µM (inactive) in assay [2]; 1.39 µM (inactive) in assay [4]; 1.74 µM (inactive) in assay [5]; 2.77 µM (inactive) in assay [6]; 2.79 µM (inactive) in [7]. Moreover, the GI50 in assay [8] is 1.74 µM (inactive); in [9], 1.89 µM (inactive); in [10] it was 1.91 µM (inactive); in assay [11] it was 1.67 µM (inactive); in assay [12], 1.18 µM (inactive); in assay [13] it was 1.6 µM (inactive). In addition, the GI50 was 2.58 µM (inactive) in [14]; 2.39 µM in assay [15]; 2.22 µM (inactive) in assay [16]; 2.92 µM (inactive) in [17]; 1.92 µM (inactive) in [19]; 3.56 µM (inactive) in assay [18].

In the case of `COc1ccc(C2=C(Cl)c3cc(OC)c(OC)cc3C2OC)cc1OC` (stereo not drawn), the GI50 in assay [1] was 3.25 µM (inactive); in [3], > 100 µM (inactive); in assay [4], > 100 µM (inactive); in assay [5], > 100 µM (inactive); in [6], 5.74 µM (inactive); in [7], > 100 µM (inactive). The GI50 in assay [8] was 50.2 µM (inactive); in [10], > 100 µM (inactive); in assay [11] it was > 100 µM (inactive); in assay [13], > 100 µM (inactive); in assay [14] it was > 100 µM (inactive); in assay [15] it was 56.9 µM. Besides, the GI50 in assay [16] was > 100 µM (inactive); in assay [17], 11.2 µM (inactive); in assay [18] it was > 100 µM (inactive).

The record behind these values is ChEMBL document CHEMBL1201862, “PubChem BioAssay data set” (2004).
